From patent publication US20210177879A1, “VITAMIN D RECEPTOR AGONIST” (Guanghzou University of Chinese Medicine, priority 2018, published 2021)

How the values were obtained:
HT29 transplanted tumor = experiment: Transplanted tumor of HT29 colon cancer cells in nude mice; type: in vivo; conditions: 2 mg/kg in combination with 5-fluorouracil at half dose (20 mg/kg), once a day; effect comparable to 5-fluorouracil alone 40 mg/kg
Procedure: (§1) The HT29 cells were thawed, and cultured in a changed medium after 24 hours. Medium preparation method: 6% serum, 1% of a bispecific antibody+a 1640 basal medium. After grown to confluent, the cells were digested and subcultured to expand the number of cells. When reached the required amount, the cells were digested by trypsin, centrifuged, and resuspended in PBS to prepare a cell suspension of 1×10^8 cells/ml. A part of the cell suspension was added with the monotropein, desacetyl asperulosidic acid, asperuloside, and asperulosidic acid respectively, and the inhibition rate (%) of tumor cell proliferation by each of these different compounds was examined.
(§2) Male adult nude mice, which had the body weights of 20-24 g, were purchased from Guangdong Medical Laboratory Animal Center. After 7 days of adaptive feeding of the animals, except for the blank group, the remaining animals were injected with 0.2 ml of a cell suspension in PBS at ventrodorsal and scapula sites of them, the response conditions of the animals were observed, and the body weights of the animals were determined once a week. After 2 weeks of observation, the animals were grouped into the following groups according to tumor size: a blank group; a model group; a 5-fluorouracil control group (5-Full, 40 mg/kg); monotropein+5-fluorouracil (2 mg/kg monotropein+20 mg/kg 5-fluorouracil), desacetyl asperulosidic acid+5-fluorouracil (2 mg/kg desacetyl asperulosidic acid+20 mg/kg 5-fluorouracil), asperuloside+5-fluorouracil (2 mg/kg asperuloside+20 mg/kg 5-fluorouracil), asperulosidic acid+5-fluorouracil (2 mg/kg asperulosidic acid+20 mg/kg 5-fluorouracil), these groups being labeled as: Mo, As, Aa, Da. Each group included 8 animals; and administration was conducted once a day.
(§3) The status, death conditions, and eating and drinking conditions of the animals were observed daily. The body weights of the animals were determined once a week and the tumor size of the animals was determined every 4 days. The tumor volume of the animals was determined by using a vernier caliper. After 1 month of administration, the animals were sacrificed after blood was sampled from the orbit thereof, and the tumor was separated and weighed.

[1] = test system: AOM/DSS colon cancer model; experiment: AOM/DSS colon cancer model, Experiment 2 (colon length, thickness, tumors); type: in vivo, Balb/c mice; conditions: 2 mg/kg once a day
Procedure: (§4) Experimental method: 70 Balb/c mice of 6-8 weeks were purchased from the Experimental Animal Center in Guangzhou University of Chinese Medicine, weighed about 18-22 g, and subjected to adaptive feeding for 10 days. Modeling was divided into three stages. In the first stage, except for the normal group of animals being given saline injection, each of the other animals were intraperitoneally injected with a carcinogen AOM (10 mg/kg), and given free access to 2% DSS water from the next day for 7 days, and then given access to replaced regular drinking water for 14 days. In the second stage, the animals were given free access to 2% DSS water for 10 days, and then given access to replaced regular drinking water for 14 days. In the third stage, the animals were given free access to 2% DSS water for 10 days, and then given access to replaced regular drinking water for 11 days. The normal group was given access to regular drinking water throughout the experiment. The diet, water drinking and body weights of the animals were recorded daily and DAI scores were made, and the animals were killed and harvested at the 10th week. In this experiment, the animals were divided into groups and administrated on the first day of a modeling period of the second stage, where a total of 7 groups were set, each group including 10 animals. The first group was a blank control group (control) that was given access to drinking water by gavage; the second group was a model group (model), in which a total of 10 animals were given access to drinking water by gavage; the third group was a vitamin D3 positive administration control group (VD3, 0.2 mg/kg); and the fourth to seventh groups were given monotropein, desacetyl asperulosidic acid, asperuloside, and asperulosidic acid (groups labeled as: Mo, As, Aa, Da), respectively at a given dose of 2 mg/kg. Dosing was conducted once a day until the end of the experiment. At the end of the experiment, the animals were anesthetized and harvested, and the colon tissue was taken, measured with a ruler for the length, and measured with a vernier caliper for the thickness. The effects of monotropein, desacetyl asperulosidic acid, asperuloside and asperulosidic acid on expression of the vitamin D receptor were detected.

HT29 colon cancer cells = experiment: In vitro proliferation inhibition of HT29 colon cancer cells; type: cell-based; conditions: concentration of 1 uM; compared with blank control group
Procedure: as §1

[2] = test system: SMB-231 pancreatic cancer cells; experiment: In vitro proliferation inhibition of SMB-231 pancreatic cancer cells; type: cell-based; conditions: concentration of 1 uM; compared with blank control group
Procedure: as §1, with “SMB-231 pancreatic cancer” for “HT29”

vitamin D receptor = experiment: Expression of vitamin D receptor in colon tissues, Experiment 2 (Western blot, immunohistochemistry); type: in vivo, Balb/c mice; conditions: compared with the blank group; VD3 0.2 mg/kg, four compounds 2 mg/kg
Procedure: as §4

[3] = test system: transplanted tumor of SW1990 breast cancer cells; experiment: Transplanted tumor of SW1990 breast cancer cells in nude mice; type: in vivo; conditions: 2 mg/kg in combination with 5-fluorouracil at half dose (20 mg/kg), once a day; effect comparable to 5-fluorouracil alone 40 mg/kg
Procedure: as §1, with “SW1990” for “HT29”
as §2, with “of a SW1990 cell suspension” for “of a cell suspension”
as §3

[4] = test system: SW1990 breast cancer cells; experiment: In vitro proliferation inhibition of SW1990 breast cancer cells; type: cell-based; conditions: concentration of 1 uM; compared with blank control group
Procedure: as §1, with “SW1990” for “HT29”

[5] = test system: transplanted tumor of MB-231 pancreatic cancer cells; experiment: Transplanted tumor of MB-231 pancreatic cancer cells in nude mice; type: in vivo; conditions: 2 mg/kg in combination with 5-fluorouracil at half dose (20 mg/kg), once a day; effect comparable to 5-fluorouracil alone 40 mg/kg
Procedure: as §1, with “SMB-231 pancreatic cancer” for “HT29”
as §2, with “of a SMB-231 pancreatic cancer cell suspension” for “of a cell suspension”
as §3

Row | Structure (SMILES) | tumor proliferation in HT29 tumor-bearing mice (HT29 transplanted tumor) | incidence and development of colorectal cancers [1] | proliferation of HT29 colorectal cancer cells in vitro (HT29 colon cancer cells) | proliferation of SMB-231 pancreatic cancer cells in vitro [2] | expression of the vitamin D receptor in the colon tissues (Western blot and immunohistochemistry) (vitamin D receptor) | tumor proliferation in SW1990 tumor-bearing mice [3] | proliferation of SW1990 cells in vitro [4] | tumor proliferation in SMB-231 tumor-bearing mice [5]
1 | O=C(O)C1=CO[C@@H](O[C@@H]2O[C@H](CO)[C@@H](O)[C@H](O)[C@H]2O)[C@@H]2C(CO)=C[C@H](O)[C@H]12 [desacetyl asperulosidic acid] | significantly inhibit tumor proliferation | inhibiting the incidence and development of colorectal cancers | significantly inhibit the proliferation | significantly inhibit the proliferation | promote expression enhancement | significantly inhibit tumor proliferation | significantly inhibit the proliferation | significantly inhibit tumor proliferation
2 | CC(=O)OCC1=C[C@H](O)[C@@H]2C(C(=O)O)=CO[C@@H](O[C@@H]3O[C@H](CO)[C@@H](O)[C@H](O)[C@H]3O)[C@H]12 [asperulosidic acid] | significantly inhibit tumor proliferation | inhibiting the incidence and development of colorectal cancers | significantly inhibit the proliferation | significantly inhibit the proliferation | promote expression enhancement | significantly inhibit tumor proliferation | significantly inhibit the proliferation | significantly inhibit tumor proliferation
3 | C=C1CC[C@H](O)C/C1=C/C=C1\CCC[C@]2(C)[C@@H]([C@H](C)CCCC(C)C)CC[C@@H]12 [vitamin D3, reference compound] | – | – | – | – | promote expression enhancement | – | – | –
4 | CC(=O)OCC1=C[C@@H]2OC(=O)C3=CO[C@@H](O[C@@H]4O[C@H](CO)[C@@H](O)[C@H](O)[C@H]4O)[C@H]1[C@@H]32 [asperuloside] | significantly inhibit tumor proliferation | inhibiting the incidence and development of colorectal cancers | significantly inhibit the proliferation | significantly inhibit the proliferation | promote expression enhancement | significantly inhibit tumor proliferation | significantly inhibit the proliferation | significantly inhibit tumor proliferation
